Data taken from ChEMBL document CHEMBL1135216, “New 2-(1-adamantylcarbonyl)pyridine and 1-acetyladamantane thiosemicarbazones-thiocarbonohydrazones: cell growth inhibitory, antiviral and antimicrobial activity evaluation” (Bioorg Med Chem Lett, 2002).
Values after ≈ are worked out from the molar mass of the structure shown.

Legend:
HEL [1] = assay: Tested for antiviral activity against human cytomegalovirus (AD-169) in human embryonic lung fibroblasts; format: functional
HEL [2] = assay: Tested for cytotoxic activity in human embryonic lung fibroblast (HEL); format: functional
E6SM [3] = assay: Tested for antiviral activity against herpes simplex virus type 1(KOS) in E6SM cell line(human embryonic skin-muscle fibroblasts); format: functional
E6SM [4] = assay: Tested for cytotoxic activity in human embryonic skin muscle fibroblast (E6SM); format: functional; settings: Muscle tissue
E6SM [5] = assay: The compound was tested for antiviral activity against thymidine kinase-deficient (TK-HSV-1)virus in E6SM cell line(human embryonic skin-muscle fibroblasts); format: functional
E6SM [6] = assay: Tested for antiviral activity against thymidine kinase-deficient (TK-HSV-2G) virus in E6SM cell line(human embryonic skin-muscle fibroblasts); format: functional
E6SM [7] = assay: Tested for antiviral activity against VSV-virus in human embryonic skin muscle fibroblasts; format: functional; settings: Muscle tissue
E6SM [8] = assay: Tested for antiviral activity against vaccinia virus in human embryonic skin muscle fibroblast; format: functional; settings: Muscle tissue
MOLT-4 [9] = assay: Tested for the inhibitory concentration against cell growth of Tcell leukemic cell line MOLT-4 using MTT assay; format: functional; settings: Homo sapiens
K562 [10] = assay: Tested for the concentration required to reduce the viability of leukemia cells by 50% against cell growth of K562 chronic myeloid leukemia using MTT assay; format: functional; settings: Homo sapiens, read-out: LC50 (the source's name)
RPMI-8226 [11] = assay: Tested for the concentration required to reduce the viability of leukemia cells by 50% against cell growth of RPMI8226 multiple myeloma using MTT assay; format: functional; settings: Homo sapiens, read-out: LC50 (the source's name)
CCRF-CEM [12] = assay: Tested for the concentration required to reduce the viability of leukemia cells by 50% against cell growth of T cell leukemia cell line CCRF-CEM using MTT assay; format: functional; settings: Homo sapiens
HuT78 [13] = assay: Tested for the concentration required to reduce the viability of leukemia cells by 50% against cell growth of HuT78 T lymphoma using MTT assay; format: functional; settings: Homo sapiens
RPMI-8226 [14] = assay: Tested for the inhibitory concentration against cell growth of […] multiple myeloma using MTT assay; format: functional; settings: Homo sapiens
HL-60 [15] = assay: Tested for the inhibitory concentration against cell growth of HL60 acute myeloid leukemia using MTT assay; format: functional; settings: Homo sapiens
CCRF-CEM [16] = assay: Tested for the inhibitory concentration against cell growth of human leukemic cell line CCRF-CEM; format: functional
K562 [17] = assay: Tested for the inhibitory concentration against cell growth of K562 chronic myeloid leukemia using MTT assay; format: functional; settings: Homo sapiens
HL-60 [18] = assay: Tested for the concentration required to reduce the viability of leukemia cells by 50% against cell growth of HL60 acute myeloid leukemia using MTT assay; format: functional; settings: Homo sapiens, read-out: LC50 (the source's name)
HuT78 [19] = assay: Tested for the inhibitory concentration against cell growth of human leukemic cell line HuT78; format: functional
MOLT-4 [20] = assay: Tested for the inhibitory concentration against cell growth of human leukemic cell line MOLT-4; format: functional
HuT78 [21] = assay: Tested for the inhibitory concentration against cell growth of HuT78 T lymphoma using MTT assay; format: functional; settings: Homo sapiens
K562 [22] = assay: Tested for the inhibitory concentration against cell growth of human leukemic cell line K562; format: functional
MOLT-4 [23] = assay: Tested for the concentration required to reduce the viability of leukemia cells by 50% against cell growth of T cell leukemia cell line MOLT-4 using MTT assay; format: functional; settings: Homo sapiens
HL-60 [24] = assay: Tested for the inhibitory concentration against cell growth of human leukemic cell line HL60; format: functional
CCRF-CEM [25] = assay: Tested for the inhibitory concentration against cell growth of Tcell leukemic cell line CCRF-CEM using MTT assay; format: functional; settings: Homo sapiens
RPMI-8226 [26] = assay: Tested for the inhibitory concentration against cell growth of human leukemic cell line RPMI8226; format: functional
HeLa [27] = assay: Tested for cytotoxic activity in human epithelial cell line (HeLa); format: functional
Vero [28] = assay: Tested for antiviral activity against parainfluenza virus in african green monkey kidney cell (Vero); format: functional; settings: Chlorocebus sabaeus
HEL [29] = assay: Tested for antiviral activity against thymidine kinase wild type Varicella zoster virus in human embryonic lung fibroblast; format: functional
Escherichia coli = assay: Tested for the antimicrobial activity against Escherichia coli ATCC 25922; format: functional
Vero [30] = assay: Tested for antiviral activity against Reo-1 virus in African green monkey kidney cell (Vero); format: functional; settings: Chlorocebus sabaeus
Vero [31] = assay: Tested for antiviral activity against Sindbis virus in African green monkey kidney cell (Vero); format: functional; settings: Chlorocebus sabaeus
Klebsiella pneumoniae = assay: Tested for the antimicrobial activity against Klebsiella pneumoniae ATCC 13883; format: functional
E6SM [32] = assay: Antiviral activity against thymidine kinase-deficient (TK-HSV-1)virus in E6SM cell line(human embryonic skin-muscle fibroblasts); format: functional
Staphylococcus hominis = assay: Tested for the antimicrobial activity against Staphylococcus hominis ATCC 27844; format: functional
MT4 [33] = assay: Tested for effective concentration required to protect MT-4 cells against the cytopathicity of HIV-2(ROD); format: functional, cell-based; settings: Homo sapiens
Vero [34] = assay: Tested for antiviral activity against coxsackie B-4 virus in African green monkey kidney cell (Vero); format: functional; settings: Chlorocebus sabaeus
HeLa [35] = assay: Tested for antiviral activity against coxsackie-B4 virus in human epithelial cell line; format: functional
HEL [36] = assay: Tested for antiviral activity against thymidine kinase deficient Varicella zoster virus in human embryonic lung fibroblasts; format: functional
MT4 [37] = assay: Tested for effective concentration required to protect MT-4 cells against the cytopathicity of HIV-1(IIIB); format: functional; settings: Homo sapiens, read-out: LC50 (the source's name)
Vero [38] = assay: Tested for antiviral activity against Punta toro virus in African green monkey kidney cell (Vero); format: functional; settings: Chlorocebus sabaeus
HeLa [39] = assay: The compound was tested for antiviral activity against VSV-virus in human epithelial cells; format: functional
MT4 [40] = assay: Tested for cytotoxic concentration required to reduce the viability of MT-4 cells by 50%; format: functional, cell-based; settings: Homo sapiens, read-out: EC50 (the source's name)
Vero [41] = assay: Tested for cytotoxic activity in African green monkey kidney cells (Vero); format: functional; settings: Chlorocebus sabaeus
[42] = system: Staphylococcus epidermidis; assay: Tested for the antimicrobial activity against Staphylococcus epidermidis ATCC 12228; format: functional
Staphylococcus aureus = assay: Tested for the antimicrobial activity against Staphylococcus aureus ATCC 6538; format: functional
[43] = read-out: LC50 (the source's name)

## Nc1ccn(C[C@@H](CO)OCP(=O)(O)O)c(=O)n1.O.O [CIDOFOVIR]
HEL [1]
  MIC: 0.27 µg/mL
HEL [2]
  MCC: > 50 µg/mL

## Nc1nc2c(ncn2COC(CO)CO)c(=O)[nH]1 [GANCICLOVIR]
E6SM [3]
  MIC: 6.4 ng/mL
E6SM [4]
  MCC: > 100 µg/mL
E6SM [5]
  MIC: 9.6 µg/mL (≈ 37.6 µM)
HEL [1]
  MIC: 2 µg/mL (≈ 7.84 µM)
HEL [2]
  MCC: > 50 µg/mL
E6SM [6]
  MIC: 0.019 µg/mL (≈ 0.0744 µM)
E6SM [7]
  MIC: 9.6 µg/mL (≈ 37.6 µM)
E6SM [8]
  MIC: > 100 µg/mL

## CC[C@]1(O)C[C@@H]2CN(CCc3c([nH]c4ccccc34)[C@@](C(=O)OC)(c3cc4c(cc3OC)N(C)[C@H]3[C@@](O)(C(=O)OC)[C@H](OC(C)=O)[C@]5(CC)C=CCN6CC[C@]43[C@@H]65)C2)C1 [VINBLASTINE]
MOLT-4 [9]
  TGI: < 0.00025 µM
K562 [10]
  CC50: < 0.00025 µM
RPMI-8226 [11]
  CC50: 0.00328 µM
CCRF-CEM [12]; [43]
  CC50: 5.73 nM
HuT78 [13]; [43]
  CC50: 0.25 nM
RPMI-8226 [14]
  TGI: 0.0008 µM
HL-60 [15]
  TGI: 0.00025 µM
CCRF-CEM [16]
  GI50: 2e-05 µM
K562 [17]
  TGI: < 0.00025 µM
HL-60 [18]
  CC50: 0.00151 µM
HuT78 [19]
  GI50: < 0.00025 µM
MOLT-4 [20]
  GI50: < 0.00025 µM
HuT78 [21]
  TGI: < 0.00025 µM
K562 [22]
  GI50: < 0.00025 µM
MOLT-4 [23]; [43]
  CC50: < 0.25 nM
HL-60 [24]
  GI50: 3.6e-05 µM
CCRF-CEM [25]
  TGI: 0.00191 µM
RPMI-8226 [26]
  GI50: 3e-06 µM

## C/C(=N/N=C(/S)NN)C12CC3CC(CC(C3)C1)C2
HeLa [27]
  MCC: 80 µg/mL
Vero [28]
  MIC: > 80 µg/mL
MOLT-4 [9]
  TGI: 100 µM
E6SM [3]
  MIC: > 16 µM
K562 [10]
  CC50: 100 µM
E6SM [4]
  MCC: > 80 µg/mL
HEL [29]
  MIC: 10.5 µg/mL (≈ 39.4 µM)
Escherichia coli
  MIC: > 3760 µg/mL
Vero [30]
  MIC: > 80 µg/mL
Vero [31]
  MIC: > 80 µg/mL
HEL [1]
  MIC: > 5 µg/mL
Klebsiella pneumoniae
  MIC: > 3760 µg/mL
E6SM [32]
  MIC: > 16 µg/mL
Staphylococcus hominis
  MIC: > 3760 µg/mL
RPMI-8226 [11]
  CC50: 100 µM
CCRF-CEM [12]
  TGI: 100 µM
HEL [2]
  MCC: > 20 µg/mL
HuT78 [13]
  TGI: 100 µM
MT4 [33]
  EC50: > 7 µM
Vero [34]
  MIC: > 80 µg/mL
RPMI-8226 [14]
  TGI: 100 µM
HeLa [35]
  MIC: > 16 µg/mL
HL-60 [15]
  TGI: 92 µM
CCRF-CEM [16]
  GI50: 36.8 µM
HEL [36]
  MIC: > 20 µg/mL
E6SM [6]
  MIC: > 16 µg/mL
K562 [17]
  TGI: 68.4 µM
HL-60 [18]
  CC50: 100 µM
HuT78 [19]
  GI50: 20.5 µM
MT4 [37]
  EC50: > 7 µM
MOLT-4 [20]
  GI50: 22.2 µM
E6SM [7]
  MIC: > 16 µg/mL
Vero [38]
  MIC: > 80 µg/mL
HeLa [39]
  MIC: > 16 µg/mL
MT4 [40]
  CC50: 7.1 µM
HuT78 [21]
  TGI: 100 µM
K562 [22]
  GI50: 14.7 µM
E6SM [8]
  MIC: > 16 µg/mL
Vero [41]
  MCC: 80 µg/mL
MOLT-4 [23]
  TGI: 100 µM
[42]
  MIC: > 3760 µg/mL
HL-60 [24]
  GI50: 48.7 µM
Staphylococcus aureus
  MIC: > 3760 µg/mL
CCRF-CEM [25]
  TGI: 100 µM
RPMI-8226 [26]
  GI50: 94.2 µM
